The subject of series [1] is panel of mammalian cell lines. The experiment in a line: cytotoxicity in a panel of mammalian cell lines (summary in words). Conditions: summary of Table 2.
Series [2] has as its system EMT6. The experiment in a line: cytotoxicity, 4 h aerobic drug exposure, EMT6. It is filed as cell-based, murine. The settings on record: read-out: IC50 EMT6.
For series [3], the system named is SKOV3. The experiment in a line: cytotoxicity, 4 h aerobic drug exposure, SKOV3. It is filed as cell-based, human. Conditions: read-out: IC50 SKOV3.
In series [4] the test system is AA8. Description: cytotoxicity, 4 h aerobic drug exposure, AA8. Type of series: cell-based, Chinese hamster. The settings on record: read-out: IC50 AA8.
The test system of series [5] is UV4 cell line. Description: cytotoxicity, 4 h aerobic drug exposure, UV4. Type of series: cell-based, Chinese hamster. Conditions: read-out: IC50 UV4.
The test system of series [6] is A549 wt/s. The experiment in a line: cytotoxicity under oxic and anoxic conditions, A549 wt/s. It is filed as cell-based, human. Conditions: for IC50: Homo sapiens, A549, 4 h exposure. Here is the method: (§1) The metal complexes also show an ability to be activated by endogenous enzymes under hypoxia, as shown for metal complex M1 in Table 4 and FIG. 2. […] Thus the metal complexes have utility as hypoxia- as well as radiation-activated cytotoxins.
(§2) In Table 4, A549wt/s is a wild-type human […] carcinoma cell line, SKOV3 is a human ovarian cancer cell line and WiDr-2 is a clonal cell line derived from the WiDr human colon carcinoma line. IC50s (in μM are determined under both oxic and hypoxic conditions, and the hypoxic cytotoxicity ratio (HCR) is the average intra-experiment ratio of the IC50s measured under oxic and hypoxic conditions.

The test system of series [7] is SKOV3. Description: cytotoxicity under oxic and anoxic conditions, SKOV3. It is filed as cell-based, human. Conditions: for IC50: Homo sapiens, SK-OV-3, 4 h exposure. Here is the method: as §1, §2
In series [8] the test system is HT29 cultures. Description: activation by endogenous enzymes under hypoxia (Table 4 and FIG. 2). Type of series: cell-based. Conditions: summary of Table 4 and FIG. 2.
Source text: as §1

Setting [9] is: Cricetulus griseus, CHO-AA8, 4 h.
The mark [10] stands for this setting: average intra-experiment ratio of IC50s oxic/hypoxic.
The mark [11] stands for this setting: 4 h aerobic exposure, mean ± sem.

Where two headings read alike, the source gives them in different places. Some results are limits rather than exact numbers.

For orientation: melting point means the temperature, or range, at which the solid turns liquid.

As to `COc1ccc(/C=C/C(=O)N2CC(CCl)c3c2cc(O)c2ncccc32)cc1O` (centres unmarked), the melting point was 215 to 218 °C.

Take `Cl.Cl.Cl.Cl.O=S(=O)(O)CCCCN1CCNCCNCCNCC1`: the melting point is 301 to 303 °C.

In the case of `COc1cc2cc(C(=O)N3CC(CCl)c4c3cc(NCCN)c3ccccc43)[nH]c2c(OC)c1OC.Cl.Cl` (centres unmarked) [Compound 29, 5-(2-aminoethylamino)-3-[(5,6,7-trimethoxyindol-2-yl)carbonyl]-1-(chloromethyl)-1,2-dihydro-3H-benz[e]indole dihydrochloride], the melting point was over 200 °C. For the same compound, the cytotoxicity in words entry in series [1] was “exceptionally cytotoxic”. The IC50 in series [2] (Mus musculus, EMT6, 4 h) is 0.0028 µM. In addition, the IC50 in [3] (Homo sapiens, SK-OV-3, 4 h) worked out at 0.0062 µM. In addition, the IC50 in series [4] (setting [9]) came out at 0.0058 ± 0.0007 µM. Also, in series [5] (Cricetulus griseus, UV4, 4 h), the IC50 was found to be 0.0041 ± 0.0003 µM.

In the case of `COc1cc2cc(C(=O)N3CC(CCl)c4c3cc(O)c3ncccc43)[nH]c2c(OC)c1OC` (centres unmarked) [Compound 18a, 1-(Chloromethyl)-5-hydroxy-3-[(5,6,7-trimethoxyindol-2-yl)carbonyl]-2,3-dihydro-1H-pyrrolo[3,2-f]quinoline], the IC50 in [6] (anoxic, read-out: IC50 A549 wt/s anoxic) was determined as 0.05 ± 0.014 nM; in series [6] (oxic, read-out: IC50 A549 wt/s oxic), 0.05 ± 0.016 nM; in [2] (Mus musculus, EMT6, 4 h) it was 5.1e-05 ± 8e-06 µM; in series [7] (anoxic, read-out: IC50 SKOV3 anoxic), 0.00035 ± 9.3e-05 µM; in series [7] (oxic, read-out: IC50 SKOV3 oxic) it was 0.00025 ± 3.7e-05 µM; in series [3] (Homo sapiens, SK-OV-3, 4 h), 0.00025 ± 3.7e-05 µM. For the same compound, the IC50 in [4] (setting [9]) worked out at 0.00014 ± 2.2e-05 µM; in series [5] (Cricetulus griseus, UV4, 4 h), 7e-05 ± 1.5e-05 µM. The “HCR A549 wt/s (hypoxic cytotoxicity ratio)” value in [6] (setting [10]) is on record as 0.79 ± 0.35(2). Further, in series [1], the cytotoxicity in words result is on record as “exceptionally cytotoxic”. For the same compound, in [7] (setting [10]), the “HCR SKOV3 (hypoxic cytotoxicity ratio)” value was 0.61(1). Further, in series [8], the “activation by endogenous enzymes under hypoxia, in words” value is “not activated by endogenous enzymes under hypoxic conditions”.

For `C1CNCCNCCNCCN1` [Cyclen, reference compound], the IC50 came out at 9710 ± 2710 µM in series [2] (setting [11]), 11500 ± 4410 µM in series [3] (setting [11]), 13300 ± 2670 µM in [4] (setting [11]) and 13800 ± 2180 µM in [5] (setting [11]).

Regarding `COc1ccc2[nH]c(C(=O)N3CC(CCl)c4c3cc(O)c3ncccc43)cc2c1` (centres unmarked), the melting point is 186 to 189 °C.

Compound `COc1ccc(/C=C/C(=O)N2CC(CCl)c3c2cc(O)c2ncccc32)cc1` (centres unmarked) returned a melting point of 208 to 211 °C.

In turn, `COc1cc2cc(C(=O)N3CC(CCl)c4c3cc(N)c3ncccc43)[nH]c2c(OC)c1OC` (centres unmarked) [Compound 27, 5-Amino-1-(chloromethyl)-3-[(5,6,7-trimethoxyindol-2-yl)carbonyl]-2,3-dihydro-1H-pyrrolo[3,2-f]quinoline] had a melting point of 258 to 263 °C. Besides, the cytotoxicity in words result in series [1] is given as “exceptionally cytotoxic”. The IC50 in series [2] (Mus musculus, EMT6, 4 h aerobic exposure, mean ± sem) was 0.0026 ± 0.0005 µM. The IC50 in [3] (Homo sapiens, SK-OV-3, 4 h aerobic exposure, mean ± sem) came out at 0.012 ± 0.0023 µM. Moreover, the IC50 in series [4] (Cricetulus griseus, CHO-AA8, 4 h aerobic exposure, mean ± sem) stood at 0.0079 ± 0.002 µM. Further, the IC50 in [5] (Cricetulus griseus, UV4, 4 h aerobic exposure, mean ± sem) came to 0.0029 ± 0.006 µM.

Take `Cl.Cl.Cl.Cl.O=S(=O)(O)CCCN1CCNCCN(CCCS(=O)(=O)O)CCNCC1`: the melting point was in the range of 279 to 281 °C.

For `CN(C)CCOC1(O)C=CC2=NC(C(=O)N3CC(CCl)c4c3ccc3ncccc43)=CC2=C1` (centres unmarked), the melting point was in the range of 176 to 179 °C.

On to `Oc1cccc2cccnc12` [Compound 8-HQ, 8-hydroxyquinoline, reference compound], for which the IC50 in series [2] (Mus musculus, EMT6, 4 h) stood at 3.92 ± 1.04 µM; in series [3] (Homo sapiens, SK-OV-3, 4 h), 4.07 ± 0.89 µM; in [4] (setting [9]), 2.07 ± 0.02 µM; in series [5] (Cricetulus griseus, UV4, 4 h) it was 2.16 ± 0.12 µM.

Source of the values: patent publication US7064117B2, “Anti-cancer 2,3-dihydro-1H-pyrrolo[3,2-f]quinoline complexes of cobalt and chromium” (Auckland Uniservices Limited, priority 2001, dated 2006).
